Experimental data reported in patent publication US11173120B2, “Stable formulations of lipids and liposomes” (BioNTech RNA Pharmaceuticals GmbH, priority 2014, dated 2021).

Assay: Stability of DOPE in DOTMA/DOPE liposomes as a function of pH (HPLC lipid recovery, 37° C.)
Assay type: physicochemical
Conditions: under all conditions (pH 4-7), up to 6 weeks
Experimental: The stability of DOPE in DOTMA/DOPE liposomes was investigated after adjusting the pH to different values between pH 7 and pH 4. For pH 7, 10 mM HEPES buffer was used. For all lower pH values, acetic acid buffers (all 10 mM) were used (see Table 1). R6 glass type I vials were filled with 2 mL of the liposomes dispersion and stored in a stability chamber at 37° C. pH values were measured by potentiometry using a WTW pH-meter inoLab pH 7310, Weilheim, Germany.
The lipid stability was tested at different time points up to 6 weeks after preparation of the liposomes by measuring the lipid concentration in the liposome preparation using a HPLC system (Agilent Technologies 1200 equipped with DAD and ELSD detectors, Santa Clara, Calif., USA).
Plotted is the normalized recovery of DOPE (in percent) from the DOTMA/DOPE liposomes. […] In contrast, at pH 5, already degradation with a recovery of only 80% of the initial value was observed.

CCCCCCCC/C=C\CCCCCCCCOCC(C[N+](C)(C)C)OCCCCCCCC/C=C\CCCCCCCC (stereo not shown) [DOTMA, 1,2-di-O-octadecenyl-3-trimethylammoniumpropane]
degradation of DOTMA in DOTMA/DOPE liposomes: no indication for degradation
